# Measurements reported in paper PMC5601486, “Identification of 4-phenylquinolin-2(1H)-one as a specific allosteric inhibitor of Akt” (Scientific Reports, 2017).
# Assays:
# Assay in all cases: KINOMEscan
# Conditions in all cases: 50000 nM
# DMPK2 = tested on: DMPK2
# Protocol: KINOMEscan™ selectivity screen
# (§1) The assay was perfor med at DiscoveRx Corporation according the methods published previously5. Briefly, Kinase-tagged T7 phage strains were grown in parallel in an E. coli host derived from the BL21 strain. E. coli were grown to log-phase and infected with T7 phage from a frozen stock and incubated with shaking at 32°C until lysis (90-150 minutes). The kinases were produced in HEK-293 cells and subsequently tagged with DNA for qPCR detection. Streptavidin-coated magnetic beads were treated with biotinylated small molecule ligands to generate affinity resins for kinase
# (§2) inhibitor or DMSO control was performed in polypropylene 384-well plates for 1 hr at room temperature. After wash with PBS buffer containing 0.05% Tween 20, the beads were incubated in elution buffer (PBS containing 0.05 % Tween 20 and 0.5 μM non-biotinylated affinity ligand) for 30 minutes at room temperature. The kinase concentration in the eluates was measured by qPCR.
# HCK = tested on: HCK
# Protocol: KINOMEscan™ selectivity screen
# (§3) Briefly, Kinase-tagged T7 phage strains were grown in parallel in an E. coli host derived from the BL21 strain. E. coli were grown to log-phase and infected with T7 phage from a frozen stock and incubated with shaking at 32°C until lysis (90-150 minutes). The kinases were produced in HEK-293 cells and subsequently tagged with DNA for qPCR detection. Streptavidin-coated magnetic beads were treated with biotinylated small molecule ligands to generate affinity resins for kinase
# as §2
# MRCKA = tested on: MRCKA
# Protocol: KINOMEscan™ selectivity screen
# as §1, §2
# MTOR = tested on: MTOR
# Protocol: KINOMEscan™ selectivity screen
# as §1, §2
# PIK3CA(C420R) = tested on: PIK3CA(C420R)
# Protocol: KINOMEscan™ selectivity screen
# as §3, §2
# PLK1 = tested on: PLK1
# Protocol: KINOMEscan™ selectivity screen
# as §1, §2
# TESK1 = tested on: TESK1
# Protocol: KINOMEscan™ selectivity screen
# as §1, §2
# ERBB2 = tested on: ERBB2
# Protocol: KINOMEscan™ selectivity screen
# as §1, §2
# HPK1 = tested on: HPK1
# Protocol: KINOMEscan™ selectivity screen
# as §1, §2
# AMPK-alpha2 = tested on: AMPK-alpha2
# Protocol: KINOMEscan™ selectivity screen
# as §1, §2
# LIMK2 = tested on: LIMK2
# Protocol: KINOMEscan™ selectivity screen
# as §1, §2
# EPHB3 = tested on: EPHB3
# Protocol: KINOMEscan™ selectivity screen
# The assay was perfor med at DiscoveRx Corporation according the methods published previously5. […] The kinases were produced in HEK-293 cells and subsequently tagged with DNA for qPCR detection. Streptavidin-coated magnetic beads were treated with biotinylated small molecule ligands to generate affinity resins for kinase
# as §2
# STK36 = tested on: STK36
# Protocol: KINOMEscan™ selectivity screen
# as §1, §2
# TAOK1 = tested on: TAOK1
# Protocol: KINOMEscan™ selectivity screen
# as §1, §2
# PFTK1 = tested on: PFTK1
# Protocol: KINOMEscan™ selectivity screen
# as §3, §2
# EPHA8 = tested on: EPHA8
# Protocol: KINOMEscan™ selectivity screen
# as §1, §2
# ERK2 = tested on: ERK2
# Protocol: KINOMEscan™ selectivity screen
# as §1, §2
# FAK = tested on: FAK
# Protocol: KINOMEscan™ selectivity screen
# as §1, §2
# TXK = tested on: TXK
# Protocol: KINOMEscan™ selectivity screen
# as §1, §2
# YANK3 = tested on: YANK3
# Protocol: KINOMEscan™ selectivity screen
# as §1, §2
# FES = tested on: FES
# Protocol: KINOMEscan™ selectivity screen
# as §3, §2
# IKK-alpha = tested on: IKK-alpha
# Protocol: KINOMEscan™ selectivity screen
# as §1, §2
# MST1 = tested on: MST1
# Protocol: KINOMEscan™ selectivity screen
# as §1, §2
# PKN2 = tested on: PKN2
# Protocol: KINOMEscan™ selectivity screen
# as §1, §2
# LATS1 = tested on: LATS1
# Protocol: KINOMEscan™ selectivity screen
# as §1, §2
# PAK6 = tested on: PAK6
# Protocol: KINOMEscan™ selectivity screen
# as §3, §2
# PKAC-beta = tested on: PKAC-beta
# Protocol: KINOMEscan™ selectivity screen
# as §1, §2
# ALK(L1196M) = tested on: ALK(L1196M)
# Protocol: KINOMEscan™ selectivity screen
# as §1, §2
# STK39 = tested on: STK39
# Protocol: KINOMEscan™ selectivity screen
# as §1, §2
# CAMK1 = tested on: CAMK1
# Protocol: KINOMEscan™ selectivity screen
# as §1, §2
# [1] = tested on: EGFR(L747-S752del, P753S)
# Protocol: as §3, §2
# PIP5K2C = tested on: PIP5K2C
# Protocol: KINOMEscan™ selectivity screen
# as §3, §2
# SGK3 = tested on: SGK3
# Protocol: KINOMEscan™ selectivity screen
# as §1, §2
# CAMK2G = tested on: CAMK2G
# Protocol: KINOMEscan™ selectivity screen
# as §1, §2
# CAMKK1 = tested on: CAMKK1
# Protocol: KINOMEscan™ selectivity screen
# as §1, §2
# PLK2 = tested on: PLK2
# Protocol: KINOMEscan™ selectivity screen
# as §3, §2
# CSK = tested on: CSK
# Protocol: KINOMEscan™ selectivity screen
# as §1, §2
# JNK1 = tested on: JNK1
# Protocol: KINOMEscan™ selectivity screen
# as §1, §2
# DAPK3 = tested on: DAPK3
# Protocol: KINOMEscan™ selectivity screen
# as §3, §2
# IRAK3 = tested on: IRAK3
# Protocol: KINOMEscan™ selectivity screen
# as §3, §2
# MET = tested on: MET
# Protocol: KINOMEscan™ selectivity screen
# as §1, §2
# [2] = tested on: ABL1(F317I)-phosphorylated
# Protocol: KINOMEscan™ selectivity screen
# as §1, §2
# CSNK1G3 = tested on: CSNK1G3
# Protocol: KINOMEscan™ selectivity screen
# as §3, §2
# CLK1 = tested on: CLK1
# Protocol: KINOMEscan™ selectivity screen
# as §3, §2
# NEK10 = tested on: NEK10
# Protocol: KINOMEscan™ selectivity screen
# as §1, §2
# MARK2 = tested on: MARK2
# Protocol: KINOMEscan™ selectivity screen
# as §3, §2
# MAP3K3 = tested on: MAP3K3
# Protocol: KINOMEscan™ selectivity screen
# as §3, §2
# TLK1 = tested on: TLK1
# Protocol: KINOMEscan™ selectivity screen
# as §1, §2
# RET = tested on: RET
# Protocol: KINOMEscan™ selectivity screen
# as §1, §2
# [3] = tested on: ABL1(Q252H)-nonphosphorylated
# Protocol: KINOMEscan™ selectivity screen
# as §1, §2
# KIT(V559D,T670I) = tested on: KIT(V559D,T670I)
# Protocol: KINOMEscan™ selectivity screen
# as §1, §2
# LATS2 = tested on: LATS2
# Protocol: KINOMEscan™ selectivity screen
# as §3, §2
# KIT(V559D) = tested on: KIT(V559D)
# Protocol: KINOMEscan™ selectivity screen
# as §3, §2
# CSF1R-autoinhibited = tested on: CSF1R-autoinhibited
# Protocol: KINOMEscan™ selectivity screen
# as §1, §2
smiles,measurement,setting,value
"Oc1cc(-c2ccccc2)c2ccccc2n1 [G7, 4-phenylquinolin-2(1H)-one]",Percent Control,DMPK2,100%
same,Percent Control,HCK,100%
same,Percent Control,MRCKA,100%
same,Percent Control,MTOR,100%
same,Percent Control,PIK3CA(C420R),100%
same,Percent Control,PLK1,100%
same,Percent Control,TESK1,100%
same,Percent Control,ERBB2,98%
same,Percent Control,HPK1,98%
same,Percent Control,AMPK-alpha2,97%
same,Percent Control,LIMK2,97%
same,Percent Control,EPHB3,96%
same,Percent Control,STK36,95%
same,Percent Control,TAOK1,95%
same,Percent Control,PFTK1,94%
same,Percent Control,EPHA8,93%
same,Percent Control,ERK2,93%
same,Percent Control,FAK,93%
same,Percent Control,TXK,93%
same,Percent Control,YANK3,93%
same,Percent Control,FES,92%
same,Percent Control,IKK-alpha,92%
same,Percent Control,MST1,90%
same,Percent Control,PKN2,89%
same,Percent Control,LATS1,87%
same,Percent Control,PAK6,87%
same,Percent Control,PKAC-beta,86%
same,Percent Control,ALK(L1196M),85%
same,Percent Control,STK39,85%
same,Percent Control,CAMK1,84%
same,Percent Control,[1],84%
same,Percent Control,PIP5K2C,83%
same,Percent Control,SGK3,83%
same,Percent Control,CAMK2G,81%
same,Percent Control,CAMKK1,80%
same,Percent Control,PLK2,78%
same,Percent Control,CSK,76%
same,Percent Control,JNK1,75%
same,Percent Control,DAPK3,74%
same,Percent Control,IRAK3,74%
same,Percent Control,MET,73%
same,Percent Control,[2],72%
same,Percent Control,CSNK1G3,71%
same,Percent Control,CLK1,69%
same,Percent Control,NEK10,66%
same,Percent Control,MARK2,65%
same,Percent Control,MAP3K3,62%
same,Percent Control,TLK1,59%
same,Percent Control,RET,51%
same,Percent Control,[3],46%
same,Percent Control,"KIT(V559D,T670I)",44%
same,Percent Control,LATS2,23%
same,Percent Control,KIT(V559D),20%
same,Percent Control,CSF1R-autoinhibited,16%
